Test results taken from article PMC12713093, “Hepatitis E Virus ORF1 Polyprotein Harbors a Pocket‐Like Cavity That Is Vital for Virus Replication and Represents a Novel Antiviral Target” (Advanced Science, 2025).

Target: T1, X-RdRp protein (HEV ORF1 X to RdRp domains, forming the 'pocket-like' cavity, PC) (Hepatitis E virus US2, UniProt Q9YLR1)
T1 construct: X-RdRp fragment of ORF1 polyprotein (X 850-998, Hel 1002-1279, RdRp 1298-1765)
T1 sequence (Q9YLR1 793-1708): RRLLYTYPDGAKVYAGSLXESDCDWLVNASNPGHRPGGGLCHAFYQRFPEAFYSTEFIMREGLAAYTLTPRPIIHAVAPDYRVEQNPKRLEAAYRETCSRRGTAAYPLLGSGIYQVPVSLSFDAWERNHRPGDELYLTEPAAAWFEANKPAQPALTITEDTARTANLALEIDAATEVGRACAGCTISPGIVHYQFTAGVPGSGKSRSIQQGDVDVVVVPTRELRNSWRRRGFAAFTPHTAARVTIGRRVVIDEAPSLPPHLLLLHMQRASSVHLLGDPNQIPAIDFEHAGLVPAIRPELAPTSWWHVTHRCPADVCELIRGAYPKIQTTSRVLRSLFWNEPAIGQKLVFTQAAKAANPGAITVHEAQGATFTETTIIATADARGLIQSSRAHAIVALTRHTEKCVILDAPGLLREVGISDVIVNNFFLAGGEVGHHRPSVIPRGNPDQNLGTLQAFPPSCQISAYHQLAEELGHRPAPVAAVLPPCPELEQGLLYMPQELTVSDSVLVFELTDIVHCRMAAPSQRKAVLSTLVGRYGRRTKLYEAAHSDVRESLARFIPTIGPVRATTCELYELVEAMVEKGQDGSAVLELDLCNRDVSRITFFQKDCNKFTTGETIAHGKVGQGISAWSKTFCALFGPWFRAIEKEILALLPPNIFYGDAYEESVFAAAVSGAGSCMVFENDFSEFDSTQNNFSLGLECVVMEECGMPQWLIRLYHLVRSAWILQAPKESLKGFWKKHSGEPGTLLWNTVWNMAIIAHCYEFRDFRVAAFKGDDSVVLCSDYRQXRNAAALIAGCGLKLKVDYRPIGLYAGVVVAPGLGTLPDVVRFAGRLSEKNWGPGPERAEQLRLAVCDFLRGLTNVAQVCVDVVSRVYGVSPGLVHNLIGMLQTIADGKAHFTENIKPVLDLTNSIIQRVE
Assay: SPR, Biacore 8K, CM5 chip, protein immobilised by amine coupling, […] Langmuir fit
Format: binding
Details: protein refolded from inclusion bodies; site (X/RdRp pocket-like cavity) assigned by docking

Structure (SMILES): C[C@H]1CC[C@@]2(OC1)O[C@H]1C[C@H]3[C@@H]4CC=C5C[C@@H](O[C@@H]6O[C@@H](C)[C@H](O)[C@@H](O)[C@H]6O)C[C@@H](O[C@@H]6O[C@H](C)[C@H](O)[C@H](O)[C@H]6O)[C@]5(C)[C@H]4CC[C@]3(C)[C@H]1[C@@H]2C [liriopesides B]
- Kd: 132 µM
